Assay results as given in article PMC12613848, “First in human phase 1 study of DT2216, a selective BCL-xL degrader, in patients with relapsed/refractory solid malignancies” (Journal of Hematology & Oncology, 2025).
Entries after “also recorded” stand apart in the source; their conditions may differ.

Assays:
[1] = test system: MOLT-4 cells (T-ALL); test: In vitro IC90, MOLT-4 cells; assay type: cell-based; settings: Homo sapiens
Experimental: (§1) Fig. 7 Mean Plasma concentration of DT2216 in 4 patients infused with DT2216 at 0.4 mg/kg over time against in vitro inhibitory concentration 90%(IC90) for various cell lines. SCLC – small cell lung cancer; OC- ovarian carcinoma; T-ALL – T cell acute lymphoblastic leukemia, CTCL – Cutaneous T cell lymphoma TEXT PRINTED IN THE PICTURE: DT2216: IC90 (≈ 1000 nM) for H146 cells (SCLC); IC90 (< 1000 nM) for OVCAR4 cells (OC); IC90 (≈ 500 nM) for MOLT-4 cells (T-ALL); IC90 (< 100 nM) for OVCAR4 cells (OC)* (*In combination with Carboplatin); IC90 (≈ 100 nM) for H146 cells (SCLC)** (**In combination with SN-38/irinotecan); IC90 (30 nM) for Myla cells (CTCL)

[2] = biological target: T1, BCL-XL (Homo sapiens, UniProt Q07817); test: BCL-XL levels in peripheral leukocytes of patients by western blotting; assay type: in vivo; settings: 0.4 mg/kg IV, 4 patients, after C1D1
T1 construct: endogenous in cells; host or cells: peripheral leukocytes (WBC) of trial patients
Experimental: Methods A dose escalation study using a 3 + 3 design with doses ranging from 0.04 to 0.4 mg/kg IV twice weekly (BIW) was performed. Eligible subjects had solid tumors of any histology that had progressed on standard treatment and had measurable tumor by RECIST v1.1. Tumor assessment was performed at 8-week intervals. BCL-XL levels were measured in peripheral leukocytes by western blotting. Results Twenty patients were enrolled, with a median age of 60.5 year; 60% were female. Only one dose-limiting toxicity was observed, grade 4 thrombocytopenia that resolved within 48 h. Stable disease, observed in 20% of the patients. The lowest platelet count in the first cycle ranged from 24,000 to 297,000. In all cases, the platelet count recovered to > 50,000 within 4 days and > 75,000 within 1 week. […] The median overall survival was 7.9 months. […] Conclusions Based on the rapid recovery of transient thrombocytopenia that occurred only in the first cycle and the degradation of BCL-XL in peripheral leukocytes, the RP2D of DT2216 is 0.4 mg/kg IV BIW. (NCT04886622)
Premedication prior to each infusion was at the discretion of the investigator or according to institutional guidelines. Patient assessment and follow-up procedures can be found in the schedule of assessments in this study. The clinical response was evaluated using RECIST v1.1 per protocol. […]

[3] = test system: advanced solid tumors; test: Efficacy in patients (RECIST v1.1, Kaplan-Meier survival); assay type: in vivo, human
Text: The primary objective of the escalation phase was to determine the recommended phase 2 dose (RP2D) for DT2216. The secondary objectives were to characterize the adverse event (AE) profile, determine the pharmacokinetic profile (PK)/pharmacodynamic profile (PD) and describe preliminary evidence of efficacy using objective response rate (ORR), disease control rate (DCR), and progression-free survival (PFS) based on Response Evaluation Criteria in Solid Tumors (RECIST) v1.1. Exploratory objectives were to characterize the baseline and on-treatment expression of BCL-XL and VHL on blood lymphocytes, as well as other circulating biomarkers. Exploratory objectives included characterizing the baseline and on-treatment changes in platelet count and correlating them with DT2216 drug levels.
Patients were allowed a maximum of two intra-patient dose escalations. Patients received DT2216 by intravenous infusion on days 1 and 4 weekly for at least 4 weeks, with each cycle consisting of a 28-day cycle for a maximum duration of 1 year until disease progression, unacceptable toxicity, or other withdrawal criteria, as listed in the protocol. The extent of disease was evaluated using imaging studies and disease-appropriate tumor markers every 8 weeks from day 1 of the first cycle. RP2D was established based on MTD as well as other relevant data, including clinical signals of activity, PK, and PD data.
Premedication prior to each infusion was at the discretion of the investigator or according to institutional guidelines. Patient assessment and follow-up procedures can be found in the schedule of assessments in this study. The clinical response was evaluated using RECIST v1.1 per protocol. Blood samples were collected for PK analysis before and after post-infusion at defined intervals, along with platelet counts. Exploratory biomarkers include (but are not limited to) the assessment of BCL-XL and VHL levels in peripheral white blood cells (WBC).
Descriptive statistics were used to display dose escalation data and results. Continuous variables, including baseline characteristics, will be summarized by reporting the number of observations, mean, standard deviation, median, minimum, and maximum values. Categorical/discrete variables will be summarized using frequency tables that show the number and percentage of subjects within a category. Time-to-event analysis was performed using the Kaplan–Meier method. The overall response rate (ORR) and its 2-sided 95% confidence interval (CI) were calculated using the Clopper-Pearson method.

[4] = test system: OVCAR4 cells (OC); test: In vitro IC90, OVCAR4 cells; assay type: cell-based; settings: Homo sapiens, OVCAR-4, DT2216 alone
Experimental: as §1

[5] = test system: H146 cells (SCLC); test: In vitro IC90, H146 cells; assay type: cell-based; settings: Homo sapiens, NCI-H146, DT2216 alone
Experimental: as §1

[6] = test system: BCL-XL; parameters: method as in PMID 31792461; settings: MOLT-4 T-ALL xenografts, after a single dosing; cited from earlier work
[7] = biological target: T1, BCL-XL; test: BCL-XL levels in WBCs from a normal human donor after incubation with DT2216; assay type: cell-based; settings: increasing concentrations, approximately 16 hours incubation, beta actin control
Experimental: Fig. 5 Levels of BCL-XL in WBCs from a normal human donor. They were determined after incubation with increasing concentrations of DT2216 as depicted in the figure for approximately 16 hours. […] BCL-XL expression after incubation with DT2216 in comparison to beta actin which acts as control in the figure

[8] = Cohort 1 (0.04 mg/kg), 1 treated
[9] = Cohort 2 (0.08 mg/kg), 1 treated
[10] = Cohort 3 (0.12 mg/kg), 1 treated
[11] = Cohort 4 (0.24 mg/kg), 7 treated
[12] = Cohort 5 (0.32 mg/kg), 6 treated
[13] = Cohort 6 (0.40 mg/kg), 4 treated

T1 sequence (Q07817 whole entry): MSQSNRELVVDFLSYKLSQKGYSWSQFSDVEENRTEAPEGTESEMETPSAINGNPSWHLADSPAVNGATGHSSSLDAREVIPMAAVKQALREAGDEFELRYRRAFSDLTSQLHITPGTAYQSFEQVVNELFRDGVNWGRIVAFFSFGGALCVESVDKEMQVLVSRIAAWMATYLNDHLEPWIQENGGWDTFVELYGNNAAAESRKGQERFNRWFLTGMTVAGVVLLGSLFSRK

Structure (SMILES): Cc1ncsc1-c1ccc([C@H](C)NC(=O)[C@@H]2C[C@@H](O)CN2C(=O)[C@@H](NC(=O)CCCCCC(=O)N2CCN(CC[C@H](CSc3ccccc3)Nc3ccc(S(=O)(=O)NC(=O)c4ccc(N5CCN(CC6=C(c7ccc(Cl)cc7)CCC(C)(C)C6)CC5)cc4)cc3S(=O)(=O)C(F)(F)F)CC2)C(C)(C)C)cc1 [DT2216]
- IC90 [1]: ~0.5 µM
- BCL-XL expression in peripheral leukocytes [2]: rapid and sustained degradation of BCL-XL; also recorded: decreases rapidly after infusion of DT2216 and is persistent
- patients who discontinued treatment because of objective disease progression ([3]; 15/20 patients): 75%
- stable disease (best response per RECIST v1.1), share of patients ([3]; 20 patients, 0.04 to 0.4 mg/kg IV BIW): 20%
- Treatment discontinuation: Clinical progression of neoplastic disease (subjects) [3, 8]: 1
- Treatment discontinuation: Objective progression of neoplastic disease (subjects) [3, 8]: 0
- Treatment discontinuation: Clinical progression of neoplastic disease (subjects) [3, 9]: 0
- Treatment discontinuation: Objective progression of neoplastic disease (subjects) [3, 9]: 1
- Treatment discontinuation: Clinical progression of neoplastic disease (subjects) [3, 10]: 0
- Treatment discontinuation: Objective progression of neoplastic disease (subjects) [3, 10]: 1
- Treatment discontinuation: Clinical progression of neoplastic disease (subjects) [3, 11]: 2
- Treatment discontinuation: Objective progression of neoplastic disease (subjects) [3, 11]: 4
- Treatment discontinuation: Clinical progression of neoplastic disease (subjects) [3, 12]: 1
- Treatment discontinuation: Objective progression of neoplastic disease (subjects) [3, 12]: 5
- Treatment discontinuation: Clinical progression of neoplastic disease (subjects) [3, 13]: 0
- Treatment discontinuation: Objective progression of neoplastic disease (subjects) [3, 13]: 4
- median overall survival ([3]; Kaplan–Meier, 95% CI 4.0 – NE): 7.9 months
- Treatment discontinuation: Clinical progression of neoplastic disease (subjects) ([3]; Total, 20 treated): 4
- Treatment discontinuation: Objective progression of neoplastic disease (subjects) ([3]; Total, 20 treated): 15
- median duration of response (stable disease) ([3]; human, in vivo): 107 days
- target liver lesions versus baseline ([3]; one person, non-small cell lung adenocarcinoma, 0.24 mg/kg, after C4): decrease in size of target liver lesions
- single-agent activity ([3]; patients with different advanced solid tumors): did not demonstrate single-agent activity
- IC90 [4]: < 1 µM
- IC90 [5]: ~1 µM
- duration of BCL-XL degradation [6]: approximately 2 weeks
- BCL-XL levels in normal human donor WBCs [7]: capable of completely degrading BCL-XL; also recorded: dose dependent degradation
